Key:
[1] = Selectivity ratio of CC50 for human HepG2 cells assessed as reduction in cell viability measured after 24 hrs in presence of glucose to CC50 for human HepG2 cells assessed as reduction in cell viability measured after 24 hrs in presence of galactose; type: cell-based
[2] = Acute toxicity in CD1 mouse assessed as effect on lung at 2000 mg/kg, po measured after 2 weeks by macroscopic analysis; type: organism-based; conditions: in vivo, 336 h
[3] = Acute toxicity in CD1 mouse assessed as effect on intestine at 2000 mg/kg, po measured after 2 weeks by macroscopic analysis; type: organism-based; conditions: in vivo, 336 h
[4] = Acute toxicity in CD1 mouse assessed as effect on spleen at 2000 mg/kg, po measured after 2 weeks by macroscopic analysis; type: organism-based; conditions: in vivo, 336 h
[5] = Cmax in CD1 mouse lung assessed as (12aR)-12-(Diphenylmethyl)-7-hydroxy-3,4,12,12a-tetrahydro-1H-[1,4]oxazino[3,4-c]pyrido[2,1-f ][1,2,4]triazine-6,8-dione level at 15 mg/kg, po administered as single dose by LC-MS/MS analysis; type: ADME, organism-based; parameters: dose 15 mg/kg, route oral; conditions: in vivo
[6] = AUClast in CD1 mouse lung assessed as (12aR)-12-(Diphenylmethyl)-7-hydroxy-3,4,12,12a-tetrahydro-1H-[1,4]oxazino[3,4-c]pyrido[2,1-f ][1,2,4]triazine-6,8-dione level at 15 mg/kg, po administered as single dose by LC-MS/MS analysis; type: ADME, organism-based; conditions: in vivo
[7] = AUCinfinity in CD1 mouse blood assessed as (12aR)-12-(Diphenylmethyl)-7-hydroxy-3,4,12,12a-tetrahydro-1H-[1,4]oxazino[3,4-c]pyrido[2,1-f ][1,2,4]triazine-6,8-dione level at 15 mg/kg, po administered as single dose measured up to 24 hrs by LC-MS/MS analysis; type: ADME, organism-based; parameters: dose 15 mg/kg, time infinity, route oral; conditions: in vivo
[8] = MRTlast in CD1 mouse blood assessed as (12aR)-12-(Diphenylmethyl)-7-hydroxy-3,4,12,12a-tetrahydro-1H-[1,4]oxazino[3,4-c]pyrido[2,1-f ][1,2,4]triazine-6,8-dione level at 15 mg/kg, po administered as single dose measured up to 24 hrs by LC-MS/MS analysis; type: ADME, organism-based; conditions: in vivo
[9] = AUClast in CD1 mouse trachea assessed as (12aR)-12-(Diphenylmethyl)-7-hydroxy-3,4,12,12a-tetrahydro-1H-[1,4]oxazino[3,4-c]pyrido[2,1-f ][1,2,4]triazine-6,8-dione level at 15 mg/kg, po administered as single dose measured up to 24 hrs by LC-MS/MS analysis; type: ADME, organism-based; conditions: in vivo
[10] = Ratio of AUClast in CD1 mouse trachea to plasma assessed as (12aR)-12-(Diphenylmethyl)-7-hydroxy-3,4,12,12a-tetrahydro-1H-[1,4]oxazino[3,4-c]pyrido[2,1-f ][1,2,4]triazine-6,8-dione level at 15 mg/kg, po administered as single dose measured up to 24 hrs by LC-MS/MS analysis; type: ADME, organism-based; conditions: in vivo
[11] = AUCinfinity in CD1 mouse brain assessed as (12aR)-12-(Diphenylmethyl)-7-hydroxy-3,4,12,12a-tetrahydro-1H-[1,4]oxazino[3,4-c]pyrido[2,1-f ][1,2,4]triazine-6,8-dione level at 15 mg/kg, po administered as single dose measured up to 24 hrs by LC-MS/MS analysis; type: ADME, organism-based; parameters: dose 15 mg/kg, time infinity, route oral; conditions: in vivo
[12] = Elimination rate constant in CD1 mouse muscle assessed as (12aR)-12-(Diphenylmethyl)-7-hydroxy-3,4,12,12a-tetrahydro-1H-[1,4]oxazino[3,4-c]pyrido[2,1-f ][1,2,4]triazine-6,8-dione level at 15 mg/kg, po administered as single dose measured up to 24 hrs by LC-MS/MS analysis; type: ADME, organism-based, Muscle tissue; conditions: in vivo
[13] = AUClast in CD1 mouse muscle assessed as (12aR)-12-(Diphenylmethyl)-7-hydroxy-3,4,12,12a-tetrahydro-1H-[1,4]oxazino[3,4-c]pyrido[2,1-f ][1,2,4]triazine-6,8-dione level at 15 mg/kg, po administered as single dose measured up to 24 hrs by LC-MS/MS analysis; type: ADME, organism-based, Muscle tissue; conditions: in vivo
[14] = AUClast in CD1 mouse plasma assessed as baloxavir acid level at 15 mg/kg, po administered as single dose by LC-MS/MS analysis; type: ADME, organism-based; parameters: dose 15 mg/kg, route oral, time 0 - last; conditions: in vivo
[15] = AUClast in CD1 mouse lung assessed as baloxavir acid level at 15 mg/kg, po administered as single dose by LC-MS/MS analysis; type: ADME, organism-based; conditions: in vivo
[16] = Ratio of AUClast in CD1 mouse lung to plasma assessed as baloxavir acid level at 15 mg/kg, po administered as single dose by LC-MS/MS analysis; type: ADME, organism-based; conditions: other tissue
[17] = Tmax in CD1 mouse blood assessed as baloxavir acid level at 15 mg/kg, po administered as single dose measured up to 24 hrs by LC-MS/MS analysis; type: ADME, organism-based; conditions: in vivo
[18] = MRTlast in CD1 mouse blood assessed as baloxavir acid level at 15 mg/kg, po administered as single dose measured up to 24 hrs by LC-MS/MS analysis; type: ADME, organism-based; conditions: in vivo
[19] = Elimination rate constant in CD1 mouse kidney assessed as baloxavir acid level at 15 mg/kg, po administered as single dose measured up to 24 hrs by LC-MS/MS analysis; type: ADME, organism-based; conditions: in vivo
[20] = Tmax in CD1 mouse kidney assessed as baloxavir acid level at 15 mg/kg, po administered as single dose measured up to 24 hrs by LC-MS/MS analysis; type: ADME, organism-based; conditions: in vivo
[21] = Ratio of AUClast in CD1 mouse kidney to plasma assessed as baloxavir acid level at 15 mg/kg, po administered as single dose measured up to 24 hrs by LC-MS/MS analysis; type: ADME, organism-based; conditions: other tissue
[22] = Ratio of AUClast in CD1 mouse heart to plasma assessed as baloxavir acid level at 15 mg/kg, po administered as single dose measured up to 24 hrs by LC-MS/MS analysis; type: ADME, organism-based; conditions: other tissue
[23] = Elimination rate constant in CD1 mouse lung assessed as baloxavir acid level at 15 mg/kg, po administered as single dose measured up to 24 hrs by LC-MS/MS analysis; type: ADME, organism-based; conditions: in vivo
[24] = Cmax in CD1 mouse small intestine assessed as baloxavir acid level at 15 mg/kg, po administered as single dose measured up to 24 hrs by LC-MS/MS analysis; type: ADME, organism-based; parameters: dose 15 mg/kg, route oral; conditions: in vivo
[25] = AUCinfinity in CD1 mouse small intestine assessed as baloxavir acid level at 15 mg/kg, po administered as single dose measured up to 24 hrs by LC-MS/MS analysis; type: ADME, organism-based; parameters: dose 15 mg/kg, route oral, time infinity; conditions: in vivo
[26] = Half life in CD1 mouse brain assessed as baloxavir acid level at 15 mg/kg, po administered as single dose measured up to 24 hrs by LC-MS/MS analysis; type: ADME, organism-based; conditions: in vivo
[27] = Half life in CD1 mouse spleen assessed as baloxavir acid level at 15 mg/kg, po administered as single dose measured up to 24 hrs by LC-MS/MS analysis; type: ADME, organism-based; conditions: in vivo
[28] = AUCinfinity in CD1 mouse spleen assessed as baloxavir acid level at 15 mg/kg, po administered as single dose measured up to 24 hrs by LC-MS/MS analysis; type: ADME, organism-based; parameters: dose 15 mg/kg, route oral, time infinity; conditions: in vivo

SMILES: COC(=O)OCOc1c2n(ccc1=O)N(C(c1ccccc1)c1ccccc1)[C@@H]1COCCN1C2=O
- selectivity ratio at 24 h [1]: 0.9
- Activity [2]: Non-Toxic
- Activity [3]: Non-Toxic
- Activity [4]: Non-Toxic
- Cmax [5]: 1882 ng/g
- AUClast [6]: 11923 ng·h/g
- AUC [7]: 2861 ng·h/g
- MRTlast [8]: 1.78 h
- AUClast [9]: 10575 ng·h/g
- Ratio AUC [10]: 3.22
- AUC [11]: 1238 ng·h/g
- Kel [12]: 0.4 h⁻¹
- AUClast [13]: 7425 ng·h/g

SMILES: COC(=O)OCOc1c2n(ccc1=O)N([C@@H]1c3ccccc3SCc3c1ccc(F)c3F)[C@@H]1COCCN1C2=O [BALOXAVIR MARBOXIL]
- AUClast [14]: 715 ng·h/mL
- AUClast [15]: 11909 ng·h/g
- Ratio AUC [16]: 16.7
- Tmax [17]: 2 h
- MRTlast [18]: 3.93 h
- Kel [19]: 0.21 h⁻¹
- Tmax [20]: 2 h
- Ratio AUC [21]: 46.8
- Ratio AUC [22]: 19.8
- Kel [23]: 0.2 h⁻¹
- Cmax [24]: 53413 ng/g
- AUC [25]: 106028 ng·h/g
- t1/2 [26]: 11.3 h
- t1/2 [27]: 3.51 h
- AUC [28]: 3640 ng·h/g
